Measurements taken from paper PMC8443589, “Modelling human liver fibrosis in the context of non-alcoholic steatohepatitis using a microphysiological system” (Communications Biology, 2021).

Tested on: liver MPS NASH model (PHH, KC and HSC co-cultures)
Test: Cue study: RNAseq transcriptomic profile, enriched pathways
Type: cell-based, human
Conditions: GO term enrichment and cluster analysis, 14 days
Description: Fig. 4 Systems biology interrogation of liver MPS NASH model to determine physiologically relevant cues that promote transcriptional changes to mimic advanced NASH disease state. […]
The MPS LC12 plates consists of 12 individual bioreactors that contain pneumatically driven micro-pumps to recirculate cell culture medium through a collagen-coated scaffold. […] Microtissues were then cultured in either HEP-Lean or HEP-Fat medium, both media’s are proprietary to CN Bio Innovations Ltd. The HEP-Fat medium is a derivative of the HEP-LEAN medium and contains a mixture of saturated and unsaturated FFAs, as well as physiologically relevant quantities of insulin and sugars. […]
Prior to RNA-seq integrity and quantity of RNA were assessed by Fragment Analyzer high sensitivity RNA kit (Agilent Technologies, USA). […] Quality and quantity of libraries were assessed by Fragment Analyzer standard sensitivity NGS kit (Agilent Technologies, USA). […] The sample pools were quantified with a Qubit Fluorometer (ThermoFisher Scientific, USA) using the dsDNA HS kit (ThermoFisher Scientific, USA), further diluted and sequenced to >13 M paired reads/sample on NextSeq500 (Illumina, USA) with PE 75 base pair (bp) read length setting.
The sequencing data were demultiplexed using Illumina bcl2fastq2-v2.16. The quality of the reads was assessed using FastQC (www.bioinformatics.babraham.ac.uk/projects/fastqc). […]

TGFβ: recombinant TGF beta 1 protein (Abcam), 1 ng/ml cue
enriched pathways / gene clusters induced: induced a wide range of clusters associated with collagen formation and matrix reorganisation
